Reference: patent US20220128542A1, “TREATMENT EFFICIENCY EVALUATION” (TX MEDIC AB, priority 2019, published 2022)

Tested on: brain of rats subjected to severe traumatic brain injury (sTBI)
Test: Ingenuity pathway analysis of differentially regulated genes after sTBI (canonical pathways, diseases and molecular functions; Example 4)
Set-up: species or system rat
Settings: TBI + 5 mg/kg LMW-DS
Method: Pathway analysis of the differentially regulated genes was carried out using the Ingenuity pathway analysis package. The analysis was performed with special reference to pathways and molecular processes and diseases associated with neurodegenerative disease, including dementia, Alzheimer's disease, ALS, TBI and stroke, and with scarring and fibrosis, including glaucoma and normal pressure hydrocephalus (NPH) after subarachnoid haemorrhage.

[1] = 7 days after TBI, relative to control

sodium salt of dextran sulfate [LMW-DS]
Effect on diseases or functions annotation: Resorption of bone (2 days after TBI): Inhibited | Effect on diseases or functions annotation: Secretion of molecule (2 days after TBI): Activated | Effect on diseases or functions annotation: Size of body (2 days after TBI): Inhibited | Effect on diseases or functions annotation: Synthesis of hormone (2 days after TBI): Inhibited | Effect on diseases or functions annotation: Transcription of RNA (2 days after TBI): Inhibited | Effect on diseases or functions annotation: Transport of molecule (2 days after TBI): Activated | Effect on diseases or functions annotation: Vasculogenesis (2 days after TBI): Inhibited | z score, Ingenuity canonical pathway: Acute Phase Response Signaling [1]: 1.89 | z score, Ingenuity canonical pathway: Adrenomedullin signaling pathway [1]: −0.632 | z score, Ingenuity canonical pathway: Cardiac Hypertrophy Signaling [1]: 1 | z score, Ingenuity canonical pathway: Colorectal Cancer Metastasis Signaling [1]: −0.378 | z score, Ingenuity canonical pathway: Dendritic Cell Maturation [1]: 1.897 | z score, Ingenuity canonical pathway: ERK5 Signaling [1]: −0.447 | z score, Ingenuity canonical pathway: ERK/MAPK Signaling [1]: 1 | z score, Ingenuity canonical pathway: Endothelin-1 Signaling [1]: 1.633 | z score, Ingenuity canonical pathway: Fcγ Receptor-mediated Phagocytosis in Macrophages and Monocytes [1]: 2.236 | z score, Ingenuity canonical pathway: GNRH Signaling [1]: 2 | z score, Ingenuity canonical pathway: HMGB1 Signaling [1]: 1.134 | z score, Ingenuity canonical pathway: IL-1 Signaling [1]: 1 | z score, Ingenuity canonical pathway: IL-6 Signaling [1]: 1 | z score, Ingenuity canonical pathway: IL-8 Signaling [1]: 2.646 | z score, Ingenuity canonical pathway: ILK Signaling [1]: 1.89 | z score, Ingenuity canonical pathway: Leukocyte Extravasation Signaling [1]: 1.342 | z score, Ingenuity canonical pathway: Neuroinflammation Signaling Pathway [1]: 1.941 | z score, Ingenuity canonical pathway: Osteoarthritis Pathway [1]: -1 | z score, Ingenuity canonical pathway: PI3K Signaling in B Lymphocytes [1]: 1.89 | z score, Ingenuity canonical pathway: PKCθ Signaling in T Lymphocytes [1]: 2 | z score, Ingenuity canonical pathway: PPAR Signaling [1]: −1.342 | z score, Ingenuity canonical pathway: Phospholipase C Signaling [1]: 1 | z score, Ingenuity canonical pathway: Production of Nitric Oxide and Reactive Oxygen Species in Macrophages [1]: 2.236 | z score, Ingenuity canonical pathway: Protein Kinase A Signaling [1]: −1.342 | z score, Ingenuity canonical pathway: Role of NFAT in Regulation of the Immune Response [1]: 2.53 | z score, Ingenuity canonical pathway: Signaling by Rho Family GTPases [1]: 1 | z score, Ingenuity canonical pathway: Synaptic Long Term Depression [1]: 1 | z score, Ingenuity canonical pathway: Wnt/β-catenin Signaling [1]: −1 | z score, Ingenuity canonical pathway: cAMP-mediated signaling [1]: −2 | z score, Ingenuity canonical pathway: mTOR Signaling [1]: 1 | Diseases or functions annotation: Abdominal adenocarcinoma (7 days after TBI): Activated | Diseases or functions annotation: Abdominal cancer (7 days after TBI): Inhibited | Diseases or functions annotation: Abdominal carcinoma (7 days after TBI): Inhibited | Diseases or functions annotation: Abdominal neoplasm (7 days after TBI): Activated | Diseases or functions annotation: Adenocarcinoma (7 days after TBI): Inhibited | Diseases or functions annotation: Angiogenesis (7 days after TBI): Activated | Diseases or functions annotation: Apoptosis (7 days after TBI): Inhibited | Diseases or functions annotation: Apoptosis of tumor cell lines (7 days after TBI): Inhibited | Diseases or functions annotation: Bleeding (7 days after TBI): Inhibited | Diseases or functions annotation: Breast or colorectal cancer (7 days after TBI): Inhibited | Diseases or functions annotation: Breast or ovarian cancer (7 days after TBI): Inhibited | Diseases or functions annotation: Breast or pancreatic cancer (7 days after TBI): Inhibited | Diseases or functions annotation: Cancer (7 days after TBI): Activated | Diseases or functions annotation: Cancer of cells (7 days after TBI): Activated | Diseases or functions annotation: Cancer of secretory structure (7 days after TBI): Activated | Diseases or functions annotation: Carcinoma (7 days after TBI): Inhibited | Diseases or functions annotation: Cell cycle progression (7 days after TBI): Activated | Diseases or functions annotation: Cell death (7 days after TBI): Activated | Diseases or functions annotation: Cell death of epithelial cells (7 days after TBI): Activated | Diseases or functions annotation: Cell death of tumor cell lines (7 days after TBI): Inhibited | Diseases or functions annotation: Cell movement (7 days after TBI): Activated | Diseases or functions annotation: Cell movement of endothelial cells (7 days after TBI): Activated | Diseases or functions annotation: Cell movement of myeloid cells (7 days after TBI): Activated | Diseases or functions annotation: Cell movement of tumor cell lines (7 days after TBI): Activated | Diseases or functions annotation: Cell survival (7 days after TBI): Activated | Diseases or functions annotation: Cell viability (7 days after TBI): Activated | Diseases or functions annotation: Cell viability of tumor cell lines (7 days after TBI): Activated | Diseases or functions annotation: Cellular homeostasis (7 days after TBI): Activated | Diseases or functions annotation: Chemotaxis (7 days after TBI): Activated | Diseases or functions annotation: Concentration of lipid (7 days after TBI): Inhibited | Diseases or functions annotation: Development of body axis (7 days after TBI): Activated | Diseases or functions annotation: Development of body trunk (7 days after TBI): Activated | Diseases or functions annotation: Development of connective tissue cells (7 days after TBI): Activated | Diseases or functions annotation: Development of epithelial tissue (7 days after TBI): Activated | Diseases or functions annotation: Development of genitourinary system (7 days after TBI): Inhibited | Diseases or functions annotation: Development of head (7 days after TBI): Activated | Diseases or functions annotation: Development of neurons (7 days after TBI): Activated | Diseases or functions annotation: Development of sensory organ (7 days after TBI): Activated | Diseases or functions annotation: Development of vasculature (7 days after TBI): Activated | Diseases or functions annotation: Differentiation of bone (7 days after TBI): Activated | Diseases or functions annotation: Differentiation of bone cells (7 days after TBI): Activated | Diseases or functions annotation: Differentiation of connective tissue cells (7 days after TBI): Activated | Diseases or functions annotation: Digestive organ tumor (7 days after TBI): Inhibited | Diseases or functions annotation: Digestive system cancer (7 days after TBI): Inhibited | Diseases or functions annotation: Endocrine gland tumor (7 days after TBI): Inhibited | Diseases or functions annotation: Expression of RNA (7 days after TBI): Activated | Diseases or functions annotation: Extracranial solid tumor (7 days after TBI): Activated | Diseases or functions annotation: Failure of kidney (7 days after TBI): Activated | Diseases or functions annotation: Formation of eye (7 days after TBI): Activated | Diseases or functions annotation: Gastrointestinal tumor (7 days after TBI): Inhibited | Diseases or functions annotation: Genital tumor (7 days after TBI): Activated | Diseases or functions annotation: Genitourinary carcinoma (7 days after TBI): Activated | Diseases or functions annotation: Genitourinary tumor (7 days after TBI): Activated | Diseases or functions annotation: Glucose metabolism disorder (7 days after TBI): Activated | Diseases or functions annotation: Growth of connective tissue (7 days after TBI): Inhibited | Diseases or functions annotation: Growth of epithelial tissue (7 days after TBI): Inhibited | Diseases or functions annotation: Growth of tumor (7 days after TBI): Activated | Diseases or functions annotation: Head and neck cancer (7 days after TBI): Inhibited | Diseases or functions annotation: Head and neck tumor (7 days after TBI): Inhibited | Diseases or functions annotation: Hematologic cancer (7 days after TBI): Inhibited | Diseases or functions annotation: Hematologic cancer of cells (7 days after TBI): Inhibited | Diseases or functions annotation: Hematopoietic neoplasm (7 days after TBI): Inhibited | Diseases or functions annotation: Intestinal tumor (7 days after TBI): Inhibited | Diseases or functions annotation: Invasion of cells (7 days after TBI): Activated | Diseases or functions annotation: Leukocyte migration (7 days after TBI): Activated | Diseases or functions annotation: Lymphatic system tumor (7 days after TBI): Inhibited | Diseases or functions annotation: Lymphocytic cancer (7 days after TBI): Inhibited | Diseases or functions annotation: Lymphocytic neoplasm (7 days after TBI): Inhibited | Diseases or functions annotation: Lymphoid cancer (7 days after TBI): Inhibited | Diseases or functions annotation: Lymphoma (7 days after TBI): Inhibited | Diseases or functions annotation: Lymphoproliferative disorder (7 days after TBI): Inhibited | Diseases or functions annotation: Lymphoreticular neoplasm (7 days after TBI): Inhibited | Diseases or functions annotation: Malignant genitourinary solid tumor (7 days after TBI): Activated | Diseases or functions annotation: Malignant solid tumor (7 days after TBI): Activated | Diseases or functions annotation: Microtubule dynamics (7 days after TBI): Activated | Diseases or functions annotation: Migration of cells (7 days after TBI): Activated | Diseases or functions annotation: Migration of endothelial cells (7 days after TBI): Activated | Diseases or functions annotation: Morbidity or mortality (7 days after TBI): Inhibited | Diseases or functions annotation: Necrosis (7 days after TBI): Activated | Diseases or functions annotation: Necrosis of epithelial tissue (7 days after TBI): Activated | Diseases or functions annotation: Neoplasia of cells (7 days after TBI): Activated | Diseases or functions annotation: Neoplasia of leukocytes (7 days after TBI): Inhibited | Diseases or functions annotation: Non-hematological solid tumor (7 days after TBI): Activated | Diseases or functions annotation: Non-melanoma solid tumor (7 days after TBI): Activated | Diseases or functions annotation: Nonhematologic malignant neoplasm (7 days after TBI): Inhibited | Diseases or functions annotation: Obesity (7 days after TBI): Activated | Diseases or functions annotation: Organismal death (7 days after TBI): Inhibited | Diseases or functions annotation: Organization of cytoskeleton (7 days after TBI): Activated | Diseases or functions annotation: Pelvic tumor (7 days after TBI): Activated | Diseases or functions annotation: Peripheral vascular disease (7 days after TBI): Activated | Diseases or functions annotation: Proliferation of connective tissue cells (7 days after TBI): Inhibited | Diseases or functions annotation: Proliferation of epithelial cells (7 days after TBI): Inhibited | Diseases or functions annotation: Quantity of cells (7 days after TBI): Activated | Diseases or functions annotation: Quantity of connective tissue (7 days after TBI): Activated | Diseases or functions annotation: Renal impairment (7 days after TBI): Activated | Diseases or functions annotation: Secretion of molecule (7 days after TBI): Activated | Diseases or functions annotation: Sensory system development (7 days after TBI): Inhibited | Diseases or functions annotation: Size of body (7 days after TBI): Activated | Diseases or functions annotation: Skin lesion (7 days after TBI): Inhibited | Diseases or functions annotation: Skin tumor (7 days after TBI): Inhibited | Diseases or functions annotation: Solid tumor (7 days after TBI): Activated | Diseases or functions annotation: Synthesis of lipid (7 days after TBI): Activated | Diseases or functions annotation: Transcription (7 days after TBI): Activated | Diseases or functions annotation: Transcription of RNA (7 days after TBI): Activated | Diseases or functions annotation: Transport of molecule (7 days after TBI): Activated | Diseases or functions annotation: Tumorigenesis of tissue (7 days after TBI): Inhibited | Diseases or functions annotation: Vasculogenesis (7 days after TBI): Activated
